Activity calls are given as the source filed them.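 The calls were made as follows: active = maximal inhibition of the USP30 enzyme reaching 30% or more across the dose series; inactive = the rest.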
Target: Ubiquitin carboxyl-terminal hydrolase 30 (Homo sapiens) (UniProt Q70CQ3)
Test: ubiquitin-specific protease 30 DUB inhibitors, concentration-effect, biochemical, validation of primary actives (AID 1645865)
Details: purified USP30, Ub-rhodamine cleavage, fluorescence, 2 h

Sequence of Ubiquitin carboxyl-terminal hydrolase 30 (Homo sapiens) (Q70CQ3 whole entry, looked up): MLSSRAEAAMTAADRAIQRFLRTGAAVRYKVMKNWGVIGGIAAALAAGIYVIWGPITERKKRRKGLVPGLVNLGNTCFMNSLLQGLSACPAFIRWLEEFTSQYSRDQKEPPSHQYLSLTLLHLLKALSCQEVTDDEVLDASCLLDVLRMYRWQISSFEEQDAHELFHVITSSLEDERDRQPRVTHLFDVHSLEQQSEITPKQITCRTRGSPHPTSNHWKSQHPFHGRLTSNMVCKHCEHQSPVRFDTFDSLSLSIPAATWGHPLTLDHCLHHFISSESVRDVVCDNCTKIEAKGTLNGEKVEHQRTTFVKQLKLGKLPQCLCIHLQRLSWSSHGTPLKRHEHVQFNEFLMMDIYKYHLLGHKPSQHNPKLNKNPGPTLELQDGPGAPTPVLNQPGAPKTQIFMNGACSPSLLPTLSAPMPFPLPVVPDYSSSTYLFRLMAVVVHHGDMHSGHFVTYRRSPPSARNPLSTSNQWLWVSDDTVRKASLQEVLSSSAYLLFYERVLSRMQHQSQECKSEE

| SMILES | IC50 |
| --- | --- |
| COc1cc(NC(=O)Cn2nc(-c3ccc(F)cc3)ccc2=O)ccc1-n1cnnn1 | 1.74 µM |
| Cn1cc(-c2noc(Cc3cccc(C(F)(F)F)c3)n2)ccc1=O | > 50 µM (inactive) |
| CC(C)CC1NC(=O)C2CCCN2C1=O (stereo unspecified) | > 50 µM (inactive) |
| O=S(=O)(c1ccccc1Cl)N1CCN(c2ccc3nnc(-c4ccco4)n3n2)CC1 | > 50 µM (inactive) |
| CCCc1nc2sc3c(NC4CCCCC4)ncnc3c2c2c1CCC2 | > 50 µM (inactive) |
| Cc1ccc(Cc2nc(-c3ccc(=O)[nH]c3)no2)cc1 | > 50 µM (inactive) |
| COc1cccc(NC(=O)C2CCN(C(=O)c3cc(-c4cccnc4)n[nH]3)CC2)c1 | > 50 µM (inactive) |
| COCCNC(=O)Cn1c(=O)n(Cc2ccccc2)c(=O)c2c3c(sc21)CCC3 | 31.7 µM |
| O=C(NCc1ccc(F)cc1)N1CCC2(C1)Nc1cccnc1NC2=NCc1ccccc1 (stereo unspecified) | > 50 µM (inactive) |
| COC1=CC(=O)c2c(O)c3c(c(C)c2C1=O)C[C@@]1(O)[C@H](O[C@H]2CC[C@H](O[C@H]4C[C@@](C)(O)[C@H](OC(=O)c5c(C)ccc(C)c5O)[C@H](C)O4)[C@@H](C)O2)C(=O)C(C(C)=O)=C(O)[C@@]1(O)C3=O | 4.74 µM |
| COC(=O)c1cc2c(ccn2C)n1CC(=O)NC1CC1 | > 50 µM (inactive) |
| O=C(COC(=O)Cn1cnc2ccccc21)Nc1ccc2c(c1)OCCO2 | > 50 µM (inactive) |
| N#Cc1cccc(S(=O)(=O)N2CCc3nc4ccccc4n3CC2)c1 | 20.3 µM |
| Cc1ccc2c(Nc3ccc(CC(=O)O)cc3)c(C(=O)N3CCCC3)cnc2n1 | > 50 µM (inactive) |
| COc1cc(COc2ccc3c(C)c(CC(=O)N4CC[C@@]5(O)CCCC[C@H]5C4)c(=O)oc3c2C)cc(OC)c1OC | 34.8 µM |
| Cc1cccc(NC(=O)Cn2cnc(-c3noc(-c4ccccc4)n3)c2)c1C | 1.24 µM |
| COc1cccc(-n2c(=O)[nH]c3c(C(N)=O)nc(-c4ccc(OCc5ccccc5)cc4)nc32)c1 | > 50 µM (inactive) |
| N#Cc1ccc(NC(=O)c2ccc(S(=O)(=O)N3CCCCC3)cc2)cc1 | 8.97 µM |
| COc1cccc(NC(=O)Nc2ccc(NC(C)=O)cc2)c1 | 17.9 µM |
| O=C(CN1C(=O)C2CCCC2=Nc2ccccc21)Nc1ccc(F)cc1F (stereo unspecified) | 36.4 µM |
| Cc1c2c(nc3ccccc13)-c1ccccc1CC2 | > 50 µM (inactive) |
| NS(=O)(=O)c1cc(C(=O)OCC(=O)NC2CCCc3ccccc32)ccc1Cl (stereo unspecified) | > 50 µM (inactive) |
| COc1ccc(C2C(C(=O)Nc3ccccc3OC)=C(C)Nc3nnnn32)cc1Br (stereo unspecified) | 27.9 µM |

| SMILES | IC50 |
| --- | --- |
| Cc1cccc(NC(=O)Cn2c(=O)n(Cc3ccc(F)cc3)c(=O)c3sccc32)c1 | 2.74 µM |
| COc1ccc(C2CC(c3ccc(C)cc3)N(C(=O)C3CC3)c3ncnn32)cc1 (stereo unspecified) | > 50 µM (inactive) |
| O=C(Cc1ccccc1F)Nc1nc(-c2ccco2)c(-c2ccco2)s1 | > 50 µM (inactive) |
| O=C(CSc1nc2cc(C(F)(F)F)ccc2s1)NCC(=O)c1ccccc1 | 1.82 µM |
| CS(=O)(=O)N1CCCc2cc(C(=O)Nc3ccc(Oc4ccccc4)cc3)ccc21 | > 50 µM (inactive) |
| CC1Cc2ccccc2N1C(=O)Cn1c(=O)cc(O)c2ccccc21 (stereo unspecified) | > 50 µM (inactive) |
| O=C1c2ccccc2NC2(C(=O)Nc3ccc(Br)cc32)N1c1ccccc1 (stereo unspecified) | > 50 µM (inactive) |
| COc1c(Cl)ccc2c(=O)c3c(O)c4c5c(c3oc12)OCO[C@H]5[C@@H](OC)c1cc2c(c(O)c1-4)C(=O)N(C)[C@H](OC)[C@@H]2O | 4.94 µM |
| COc1ccc(C(=O)Nc2ccc(S(=O)(=O)N3CCCCC3)cc2)cc1 | > 50 µM (inactive) |
| O=C(CSc1ccc(-c2cccc([N+](=O)[O-])c2)nn1)Nc1cccc(F)c1 | 2.11 µM |
| COc1ccc2c(c1)CCc1c(C(=O)NCc3cccnc3)noc1-2 | 19.4 µM |
| Fc1cccc(-n2cc(-c3noc(-c4ccccn4)n3)nn2)c1 | 27 µM |
| CC(C)(C)c1ccc(-c2nnc3n2-c2ccccc2SC3)cc1 | 19.1 µM |
| N#Cc1ccc(Cl)cc1NC(=O)COc1cccnc1[N+](=O)[O-] | > 50 µM (inactive) |
| CC1CC(=O)c2c(cc3c(-c4c(O)cc(O)c5c(O)c6c(cc45)OC(C)CC6=O)c(O)cc(O)c3c2O)O1 (stereo unspecified) | > 50 µM (inactive) |
| CCn1cnc2c(-c3ccccc3)cn(CC(=O)NCc3ccc4c(c3)OCO4)c2c1=O | 5 µM |
| Cc1ccc(C2=Nc3ccccc3N(CC(=O)Nc3cccc(C)c3C)C(=O)C2)cc1C | 4.93 µM |
| COc1cc2c(cc1OC)C(COc1ccccc1OC)N(C(=O)c1ccc3ccccc3c1)CC2 (stereo unspecified) | > 50 µM (inactive) |
| CC(=O)c1ccc(NC(=O)c2nc3ccccc3nc2N2CCOCC2)cc1 | > 50 µM (inactive) |
| CC(=O)N1CCc2cc(CNC(=O)Nc3cc(C)ccc3C)ccc21 | > 50 µM (inactive) |
| COc1ccccc1-c1nc2c3c(C)c(C)n(Cc4cccnc4)c3ncn2n1 | > 50 µM (inactive) |
| CCc1nc(SCC(=O)Nc2ccccc2Cl)c2oc3ccccc3c2n1 | < 0.05 µM |
| O=C(c1cc(-c2ccc(Cl)cc2)n[nH]1)N1CCN(C(=O)c2ccco2)CC1 | 31.7 µM |

| SMILES | IC50 |
| --- | --- |
| COC(=O)c1ccc(Cn2cnc3ccc(Br)cc3c2=O)o1 | > 50 µM (inactive) |
| CCCCc1nc2sc3c(NCCN4CCOCC4)ncnc3c2c2c1CCC2 | > 50 µM (inactive) |
| COc1ccc(S(=O)(=O)N(C)Cc2cccs2)cc1OC | > 50 µM (inactive) |
| O=C(Nc1ccc2c(c1)OCCO2)C1CCN(C(=O)c2ccccc2)CC1 | > 50 µM (inactive) |
| CC1OC2CC(O)C1(O)C1=C2C(=O)c2c(O)c3c(c(O)c2C1=O)[C@H](C)O[C@H]1CC(=O)O[C@@H]31 (stereo partly specified) | > 50 µM (inactive) |
| COCCCn1c(C(=O)NCCc2ccccc2)cc2c(=O)n3cccc(C)c3nc21 | 34.7 µM |
| O=C(Nc1ccc(Oc2cccc3cccnc23)cc1)c1cccs1 | > 50 µM (inactive) |
| O=C(CC1C(=O)N(Cc2ccccc2)c2nc3ccccc3n21)NCCc1ccccc1 (stereo unspecified) | 19.5 µM |
| COc1ccc(NC(=O)Cn2c(CS(=O)(=O)c3ccc(C)cc3)nc3ccccc32)cc1 | 7.12 µM |
| Cc1cc(SCc2ncon2)c(C)cc1Cl | > 50 µM (inactive) |
| COc1cccc(C(=O)NCc2[nH]nc3ccccc23)c1 | > 50 µM (inactive) |
| Cc1ccc(-c2nc(N3CCCC(O)C3)ncc2-c2cnccn2)s1 (stereo unspecified) | > 50 µM (inactive) |
| COc1ccc(CCN2COc3c(cc(Cl)c4cccnc34)C2)cc1OC | 13.6 µM |
| COc1ccc(CCNc2c(-c3ccccc3O)nc3cnccn23)cc1OC | > 50 µM (inactive) |
| c1ccc(-n2nnc(-c3noc(-c4cccnc4)n3)c2-c2ccncc2)cc1 | 25.9 µM |
| O=C(COc1ccc(Cl)cc1Cl)Nc1ccc2[nH]c(=O)[nH]c2c1 | 4.06 µM |
| Cc1ccc2c(c1)N(Cc1nc(-c3ccc(F)cc3)no1)C(=O)CO2 | > 50 µM (inactive) |
| COc1ccc(C)cc1NC(=O)Cc1csc(NC(=O)c2ccc(=O)[nH]c2)n1 | > 50 µM (inactive) |
| COc1cc(=O)c(C(=O)Nc2ccc(C#N)cc2)nn1-c1cccc(F)c1 | 25.4 µM |
| O=C(NCc1ccc(CN2CCCC2)cc1)c1cc2ccccc2[nH]c1=O | > 50 µM (inactive) |
| COc1ccc(C2SCC(=O)Nc3c2c(=O)[nH]n3C2CCCCCC2)cc1 (stereo unspecified) | 23.8 µM |
| CCOc1ccc2[nH]c(=O)c(CN(C(=O)c3cccs3)C3CCCC3)cc2c1 | 10.2 µM |
| CCn1c(=O)c2ccccc2n(Cc2nc(-c3ccccc3OC)no2)c1=O | > 50 µM (inactive) |

| SMILES | IC50 |
| --- | --- |
| COc1ccccc1OCCNC(=O)c1cc(C2CC2)nc2c1cnn2C(C)C | > 50 µM (inactive) |
| O=C(c1ccc(N2CCc3ccccc32)nn1)N1CCc2ccccc21 | > 50 µM (inactive) |
| Cc1ccc(-n2c(=O)c3ccccc3n(Cc3c(F)cccc3Cl)c2=O)cc1 | 2.25 µM |
| CC1CCCN1C(=O)c1ccn(-c2ccc3ccc(-c4cccnc4)cn23)n1 (stereo unspecified) | > 50 µM (inactive) |
| Fc1ccc(CN2CCc3nc4cccnc4cc3C2)cc1 | > 50 µM (inactive) |
| Cn1c(=O)cc(SCC(=O)NC2CCN(Cc3ccccc3)CC2)c2ccc(Cl)cc21 | 28.8 µM |
| O=C1N[C@@H](Cc2ccccc2)C(=O)N2[C@H]3Nc4ccccc4[C@@]3([C@]34C[C@H]5C(=O)N[C@@H](Cc6ccccc6)C(=O)N5[C@H]3Nc3ccccc34)C[C@@H]12 | 40.3 µM |
| O=C(C(c1ccccc1)c1ccccc1)N1CCC(c2nc3c(nnn3Cc3c(F)cccc3Cl)c(=O)[nH]2)CC1 | 11.5 µM |
| COc1ccc(NS(=O)(=O)c2ccc(NC(=O)Nc3ccc(Cl)cc3)cc2)cc1 | 18.3 µM |
| Cc1ccc(C)c(Nc2cc(C)nc3nc(-c4ccco4)nn23)c1 | > 50 µM (inactive) |
| N#Cc1ccc(Cn2nnc(-c3cccc(Cl)c3)n2)cc1 | > 50 µM (inactive) |
| COc1cc(OC)cc(-n2c(=O)c3sccc3n(CC(=O)Nc3ccc(C)cc3)c2=O)c1 | 5.2 µM |
| O=C(Cn1ncc2c(N3CCCCCC3)ncnc21)NCc1ccccc1 | > 50 µM (inactive) |
| COc1ccc(NC(=O)C2CCCN(S(=O)(=O)N3CCCCCC3)C2)cc1 (stereo unspecified) | 42.7 µM |
| O=c1[nH]c2ccccc2cc1CN(Cc1ccco1)S(=O)(=O)c1ccc(F)cc1 | > 50 µM (inactive) |
| Cc1ccc2c(=O)c3c([nH]c2c1C)CCN(CC(=O)NCc1ccc2c(c1)OCO2)C3 | > 50 µM (inactive) |
| CC(C)=CCC/C(C)=C/C[C@]1(O)C(=O)c2cc(O)cc(O)c2C(=O)[C@@]1(Cl)CC=C(C)C | > 50 µM (inactive) |
| CN1C(=O)[C@@]23C[C@]4([C@@]56C[C@]78SS[C@](CO)(C(=O)N7[C@@H]5Nc5ccccc56)N(C)C8=O)c5ccccc5N[C@@H]4N2C(=O)[C@]1(CO)SS3 | 0.266 µM |
| Cc1cccc(OCCn2c(CCNC(=O)C3CCCCC3)nc3ccccc32)c1 | 20.2 µM |
| Cc1noc(C)c1COc1cccc(C(=O)Nc2cc(Cl)ccc2-n2cncn2)c1 | > 50 µM (inactive) |
| O=c1c(S(=O)(=O)c2cc(F)cc(F)c2)c[nH]c2cc(Cl)ccc12 | 21 µM |
| Cc1nc2cccnc2n1C1CCN(C(=O)c2cc3cc(Cl)ccc3[nH]2)C1 (stereo unspecified) | > 50 µM (inactive) |
